We go through 78 compounds from the METLIN SMRT retention time set (Domingo-Almenara et al. 2019).

This data set is described as follows: gradient 5% acetonitrile 3 min, to 50% in 2 min, to 85% in 15 min, held 3 min, 100 µL/min. The settings on record: column: Zorbax Extend-C18 2.1 x 50 mm; eluents: water / acetonitrile, 0.1% formic acid. The gist of the method:
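In both positive and negative ionization mode, a quadrupole time-of-flight mass spectrometer coupled to HPLC analyzed pure standards run in mixtures of ~100 molecules. The Zorbax Extend-C18 column (2.1 × 50 mm, 1.8 μm) was operated at 100 μL/min with water and acetonitrile, each containing 0.1% formic acid. The dead volume was 40 μL and the dwell volume 900 μL. Retention time came from adduct peaks that were computationally picked and individually inspected by hand.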
Consider `COC(=O)C(C)NC(=O)NCc1cccn1Cc1ccc(Cl)cc1` (stereo not drawn), for which the RP-LC retention time was 832 s.

Take `COc1ccc(N2CCN(S(=O)(=O)c3cc(-c4cc(C(F)(F)F)on4)cs3)CC2)cc1`: the RP-LC retention time is 1190 s.

The compound `CCCNC(=O)C1CCCN(c2ccc(SCC(=O)Nc3ccc(OC)c(Cl)c3)nn2)C1` (stereo not drawn) gave an RP-LC retention time of 688 s.

`Cc1ccc(C(=O)N2C[C@@H]3C[C@H](NC(=O)c4cccs4)[C@H]2C3)cn1` yielded an RP-LC retention time of 581 s.

Regarding `COc1ccc(C(=O)Nc2nccnc2C(=O)NCCN2CCCCC2)cc1`, the RP-LC retention time was 590 s.

Compound `Cc1ccc(C)c(NC(=O)Cc2c(C(=O)O)c(C)cn2C)c1` displayed an RP-LC retention time of 795 s.

On to `Cc1ccc(N2CCN(c3nccn4c(=O)n(CC(=O)Nc5ccc(C)c(C)c5)nc34)CC2)cc1`, for which the RP-LC retention time amounted to 1000 s.

In the case of `CCOC(=O)c1[nH]c(C)c(C(=O)C(C)N(C(=O)c2cccc(F)c2)C(C)C)c1C` (stereo not drawn), the RP-LC retention time worked out at 883 s.

For the compound `Clc1ccc(-c2nnc(-c3nc(NCc4cccnc4)c4ccccc4n3)o2)cc1`, the RP-LC retention time came out at 680 s.

Compound `CCCS(=O)(=O)c1nc2ccc(NS(=O)(=O)c3cc(F)cc(F)c3)cc2s1` yielded an RP-LC retention time of 952 s.

For the compound `CCCN(C(=O)C1CCCN(c2ncnc3c2nc2n3CCCCC2)C1)c1ccc(F)cc1` (stereo not drawn), the RP-LC retention time worked out at 930 s.

`COc1ccccc1NC(=O)NCC(c1cccnc1)c1c[nH]c2ccccc12` (stereo not drawn) displayed an RP-LC retention time of 657 s.

With `CC(=O)N1CCC(C(=O)NCc2ccc(-c3nc(-c4ccc(F)cc4)no3)s2)CC1`, the RP-LC retention time is 786 s.

As to `CCOc1ccc(-c2nn3c(Cc4ccc(OC)cc4)nnc3s2)cc1`, the RP-LC retention time is 1070 s.

`NS(=O)(=O)c1ccc(NC(=O)CSc2nnc3ccc4ccccc4n23)cc1` yielded an RP-LC retention time of 652 s.

In turn, `Cc1sc(-c2nnc(C3CC3)o2)cc1NC(=O)Cc1c[nH]c2ccccc12` yielded an RP-LC retention time of 877 s.

The compound `CCOC(=O)c1cnc2ccc(OCC)cc2c1NCCN(C)C` registered an RP-LC retention time of 560 s.

Consider `COc1ccc(C(F)(F)F)cc1NC(=O)C1CCCN(c2ccc(-n3ccnc3)nn2)C1` (stereo not drawn), for which the RP-LC retention time was determined as 609 s.

For the compound `CN1CCN(CCNC(=O)Cn2c(=O)c3cccn3c3ccc(F)cc32)CC1`, the RP-LC retention time stood at 578 s.

`O=C(CN1C(=O)C2CCCCN2c2ccc(S(=O)(=O)N3CCCC3)cc21)NC1CCCC1` (stereo not drawn) gave an RP-LC retention time of 761 s.

In the case of `Cn1nccc1C(=O)N1CCCCC1c1nncn1Cc1ccccc1` (stereo not drawn), the RP-LC retention time was found to be 665 s.

As to `COc1ccc(S(=O)(=O)N(C(C)=O)c2ccccc2/C=C/c2cc[n+]([O-])cc2)cc1`, the RP-LC retention time was 785 s.

Compound `CCC1CCCCN1C(=O)c1cnc2nc(C)ccc2c1Nc1cc(F)ccc1C` (stereo not drawn) showed an RP-LC retention time of 705 s.

Compound `Cc1nc(-c2cnccn2)n(CC(=O)Nc2ccccc2)c(=O)c1C` came in with an RP-LC retention time of 704 s.

For the compound `CCn1cc(-c2nc(-c3cccc(Br)c3)no2)c(=O)c2cc(F)c(N3CCOCC3)cc21`, the RP-LC retention time was determined as 1050 s.

Compound `Cc1cc(F)ccc1NC(=O)c1cn2c(n1)CSCC2` showed an RP-LC retention time of 728 s.

`CCn1cc(C2=CCN(C(=O)Nc3ccc4c(c3)OCCO4)CC2)c2cccnc21`: the RP-LC retention time was determined as 789 s.

For the compound `COCc1cn(CC2CCCN(Cc3cn(C(C)C)c4ccc(OC)cc34)C2)nn1` (stereo not drawn), the RP-LC retention time was found to be 648 s.

Take `COCCCNC(=O)CCc1cn(-c2ccccc2)nc1-c1ccc2c(c1)OCO2`: the RP-LC retention time was determined as 841 s.

As for `COc1cc(Cl)c(NC(=O)C2CCN(C(=O)c3cc(-c4ccncc4)n[nH]3)CC2)c(OC)c1`, the RP-LC retention time worked out at 629 s.

For the compound `COc1cccc2nnc(NC(=O)CCC(=O)NCC(C)C)n12`, the RP-LC retention time was determined as 587 s.

In turn, `O=S(=O)(c1ccc2nncn2c1)N(Cc1ccc(F)cc1)c1ccccc1` gave an RP-LC retention time of 846 s.

As to `CNC(=O)c1cc2cccc3c2n1CC(C)S3` (stereo not drawn), the RP-LC retention time amounted to 853 s.

`Cc1cc(F)ccc1S(=O)(=O)NCCc1ccsc1` returned an RP-LC retention time of 900 s.

Compound `Cc1ccc(CNC(=O)CN2C(=O)CCc3cc(S(=O)(=O)N4CCCCC4C)ccc32)cc1` (stereo not drawn) came in with an RP-LC retention time of 916 s.

`Cc1ccc(CNC(=O)C2CCN(S(=O)(=O)c3cc(-c4noc(C)n4)sc3C)CC2)o1` registered an RP-LC retention time of 906 s.

In the case of `CC(C)N1C(=O)C(C)(C(=O)NCc2ccccc2)Oc2cccnc21` (stereo not drawn), the RP-LC retention time was determined as 912 s.

With `Cc1nnc2c(=O)n(CC(=O)N3CCN(c4ccccn4)CC3)c3cccnc3n12`, the RP-LC retention time stood at 548 s.

`Brc1ccccc1-c1nn2c(-c3ccccn3)nnc2s1` returned an RP-LC retention time of 836 s.

As to `O=C(NC1CC1)C1CCN(Cc2cc3ccccc3n2Cc2ccc(F)cc2)CC1`, the RP-LC retention time was 701 s.

Turning to `COc1ccccc1-c1noc(-c2nnn3c2COC(c2ccc(Cl)cc2)C3)n1` (stereo not drawn), the RP-LC retention time stood at 1220 s.

Compound `CCCN1CCN(C(=O)c2nc(N3CCCCC3)c3c(C)cc(C)nc3n2)CC1` yielded an RP-LC retention time of 566 s.

In the case of `CCSc1nc2ccc(NS(=O)(=O)Cc3cc(C)ccc3C)cc2s1`, the RP-LC retention time worked out at 1150 s.

`CCNC(=O)C1CCCN(c2nc3ncn(CC(=O)NCc4ccc5c(c4)OCO5)c(=O)c3s2)C1` (stereo not drawn): the RP-LC retention time came to 640 s.

Consider `Cc1ccc(S(=O)(=O)N2CCC(C(=O)NC(C)C(=O)N3CCCc4ccccc43)CC2)cc1` (stereo not drawn), for which the RP-LC retention time came out at 902 s.

For the compound `COc1ccccc1CNC(=O)c1ccc2ncnc(N3CCCC3)c2c1`, the RP-LC retention time is 640 s.

With `CCOC(=O)c1nc(N(C)C2CCCCC2)c2ccccc2n1`, the RP-LC retention time amounted to 789 s.

For the compound `CC(C)C(=O)N1CCc2cc(C(N)=O)ccc21`, the RP-LC retention time amounted to 637 s.

`Cc1c(Cl)cccc1NC(=O)C(=O)NCc1ccsc1` came in with an RP-LC retention time of 943 s.

`Cc1cc2nn(CC(=O)Nc3ccccc3F)c(=O)n2c(Nc2ccccc2)n1` had an RP-LC retention time of 985 s.

Take `Cc1ccc(N2CCN(CC(O)COc3cccc(C)c3)CC2)cc1` (stereo not drawn): the RP-LC retention time was 782 s.

The compound `Cc1cccc(N2CCN(c3ccc4cc(S(=O)(=O)N5CCCCC5)ccc4n3)CC2C)c1` (stereo not drawn) showed an RP-LC retention time of 1110 s.

`CC(C)c1ccc(CN2CC(c3nc(CCN(C)S(C)(=O)=O)no3)C2)cc1` had an RP-LC retention time of 664 s.

In the case of `Cc1cc(NC(=O)C2CCN(S(=O)(=O)c3ccc(F)cc3)CC2)n(C)n1`, the RP-LC retention time turned out to be 732 s.

The compound `CCOC(=O)N1CCN(C(=O)Cc2c(C)nn(-c3nc(-c4ccc(C)cc4)cs3)c2C)CC1` showed an RP-LC retention time of 1070 s.

Regarding `Cc1cc(C)cc(NC(=O)CN2C(=O)CC(C)S(=O)(=O)c3ccccc32)c1` (stereo not drawn), the RP-LC retention time stood at 846 s.

With `O=c1c2cc(-c3cccs3)nn2cnn1Cc1nc(-c2ccc(OCc3ccccc3)cc2)no1`, the RP-LC retention time was found to be 1220 s.

For `COc1ccc(CNC(=O)C2CCN(S(=O)(=O)c3ccc4c(c3)NC(=O)C(C)O4)CC2)cc1` (stereo not drawn), the RP-LC retention time amounted to 788 s.

Compound `CCN(Cc1ccc(F)cc1)Cc1cc(=O)n2cc(Cl)ccc2n1` showed an RP-LC retention time of 578 s.

Compound `O=C(Cc1ccc(-c2ccc(OCCN3CCOCC3)cc2)cn1)NCc1ccccc1` gave an RP-LC retention time of 621 s.

Take `CC1(C)C(=O)N(CC(=O)Nc2cccc(Cl)c2)c2ccccc21`: the RP-LC retention time stood at 978 s.

Compound `CCCCC(=O)Nc1nc(-c2ccc3c(c2)N(CC)C(=O)CO3)c(C)s1` displayed an RP-LC retention time of 982 s.

As for `CC(C)Cn1nc2c(S(=O)(=O)N3CCN(c4ccc(F)cc4)CC3)cccn2c1=O`, the RP-LC retention time was 914 s.

As to `O=C(COc1ccccc1-c1nc(-c2ccccc2Cl)no1)NCc1ccco1`, the RP-LC retention time was 1060 s.

Regarding `O=C(CN1C(=O)C2CCCCN2c2ccc(C(=O)N3CCCC3)cc21)NCC1CCCO1` (stereo not drawn), the RP-LC retention time stood at 672 s.

`CS(=O)(=O)N(Cc1ccccn1)C1CN(C(=O)C2CCC2)C1` gave an RP-LC retention time of 603 s.

In the case of `CCN1CCn2cc(S(=O)(=O)N3CCN(c4ccccc4)CC3)cc2C1=O`, the RP-LC retention time came to 684 s.

`COc1ccc(NC(=O)N2CCC(CN3CCCC(C)C3)CC2)cc1Cl` (stereo not drawn) had an RP-LC retention time of 629 s.

The compound `COc1ccc2nc3cc(Cl)ccc3c(C#N)c2c1` came in with an RP-LC retention time of 1260 s.

Turning to `COC(=O)[C@H]1[C@H]2C[C@@H]3c4[nH]c5cc(OC)ccc5c4CCN3C[C@H]2C[C@@H](OC(=O)CC(C)=O)[C@@H]1OC`, the RP-LC retention time came to 731 s.

Consider `COC(=O)c1ccccc1S(=O)(=O)Nc1cccn2c(C3CCC3)nnc12`, for which the RP-LC retention time turned out to be 772 s.

For the compound `Cc1ccccc1CNC(=O)C1CCN(S(C)(=O)=O)c2cc(Cl)ccc2O1` (stereo not drawn), the RP-LC retention time is 975 s.

Turning to `CC(=O)c1ccc(NC(=O)Cn2c(-c3cccnc3)nc3ccccc32)cc1`, the RP-LC retention time came to 689 s.

`CC(=O)N1CCc2cc(N3CC(C(=O)Nc4ccc(Cl)cc4C)CC3=O)ccc21` (stereo not drawn) displayed an RP-LC retention time of 735 s.

For the compound `Cc1nn(-c2ccc(-c3ccccc3)nn2)c(C)c1S(=O)(=O)N1CCN(C)CC1`, the RP-LC retention time was 644 s.

For the compound `CC1CCN(C(=O)c2ccc(OCC3CCCN(C(=O)c4ccc(F)cc4)C3)cc2)CC1` (stereo not drawn), the RP-LC retention time came out at 995 s.

`CC(C)Cn1ccc2c(cc(C(=O)NCCCN3CCOCC3)n2C)c1=O` registered an RP-LC retention time of 594 s.

`COC(=O)c1ccc2c(=O)n(-c3ccc(OC)cc3)c(N3CCN(c4ccccn4)CC3)nc2c1`: the RP-LC retention time worked out at 1290 s.
